# Reference: US20180334436A1 (VIIV HEALTHCARE UK LIMITED, priority 2015, published 2018)
# System: HIV
# Test: MT4 assay (anti-HIV activity)
# Type: cell-based
# Conditions: Human immunodeficiency virus 1, 96 h, antiviral HIV activity in HTLV-1 transformed cell line MT-4; luciferase read 96 hours later; 10 point dose response
# Summary of the method: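 MT-4 cells infected with HIV, with inhibition readout by CellTiter-Glo luminescence at 96 h relative to no-compound control. Cytotoxicity measured in parallel under the same conditions. IC50 from a 10-point, 3-4-fold dilution series spanning >1000-fold, fitted with a four-parameter logistic equation.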
row,SMILES,IC50 [nM]
1,"COc1ccc(C(=O)N2CCc3c(C)c([C@H](OC(C)(C)C)C(=O)O)c(-c4cc(F)c5c(c4C)CCCO5)c(C)c3C2)cc1F [Example 92, (S)-2-(tert-Butoxy)-2-((R)-2-(3-fluoro-4-methoxybenzoyl)-7-(8-fluoro-5-methylchroman-6-yl)-5,8-dimethyl-1,2,3,4-tetrahydroisoquinolin-6-yl)acetic Acid]",153
2,"Cc1c(-c2c(C)c3c(c(C)c2[C@H](OC(C)(C)C)C(=O)O)CCN(C(=O)c2cccc(OC(C)C)c2)C3)cc(F)c2c1CCCO2 [Example 93, (S)-2-(tert-Butoxy)-2-((R)-7-(8-fluoro-5-methylchroman-6-yl)-2-(3-isopropoxybenzoyl)-5,8-dimethyl-1,2,3,4-tetrahydroisoquinolin-6-yl)acetic Acid]",178
3,"Cc1c(-c2c(C)c3c(c(C)c2[C@H](OC(C)(C)C)C(=O)O)CCN(C(=O)c2ccc(C(F)(F)F)cc2)C3)cc(F)c2c1CCCO2 [Example 94, (S)-2-(tert-Butoxy)-2-((R)-7-(8-fluoro-5-methylchroman-6-yl)-5,8-dimethyl-2-(4-(trifluoromethyl)benzoyl)-1,2,3,4-tetrahydroisoquinolin-6-yl)acetic Acid]",384
4,"Cc1ccc(C(=O)N2CCc3c(C)c([C@H](OC(C)(C)C)C(=O)O)c(-c4cc(F)c5c(c4C)CCCO5)c(C)c3C2)cn1 [Example 96, (S)-2-(tert-Butoxy)-2-((R)-7-(8-fluoro-5-methylchroman-6-yl)-5,8-dimethyl-2-(6-methylnicotinoyl)-1,2,3,4-tetrahydroisoquinolin-6-yl)acetic Acid]",109
5,"Cc1ccc(-c2c(C)c3c(c(C)c2C(OC(C)(C)C)C(=O)O)CC(=O)N(Cc2ccccc2)C3)cc1 (stereo not drawn) [Example 98, 2-(2-Benzyl-5,8-dimethyl-3-oxo-7-(p-tolyl)-1,2,3,4-tetrahydroisoquinolin-6-yl)-2-(tert-butoxy)acetic Acid]",14
6,"Cc1ccc(-c2c(C)c3c(c(C)c2C(OC(C)(C)C)C(=O)O)CN(Cc2ccccc2)C(=O)C3)cc1 (stereo not drawn) [Example 99, 2-(2-Benzyl-5,8-dimethyl-3-oxo-6-(p-tolyl)-1,2,3,4-tetrahydroisoquinolin-7-yl)-2-(tert-butoxy)acetic Acid]",3300
7,"Cc1ccc(-c2c(C)c3c(c(C)c2[C@H](OC(C)(C)C)C(=O)O)CN(Cc2ccccc2)C(=O)C3)cc1 [Example 100, (S)-2-(2-Benzyl-5,8-dimethyl-3-oxo-6-(p-tolyl)-1,2,3,4-tetrahydroisoquinolin-7-yl)-2-(tert-butoxy)acetic Acid]",1360
8,"Cc1ccc(-c2c(C)c3c(c(C)c2[C@H](OC(C)(C)C)C(=O)O)CC(=O)N(Cc2ccccc2)C3)cc1 [Example 101, (S)-2-(2-Benzyl-5,8-dimethyl-3-oxo-7-(p-tolyl)-1,2,3,4-tetrahydroisoquinolin-6-yl)-2-(tert-butoxy)acetic Acid]",4
9,"Cc1c(-c2c(C)c3c(c(C)c2[C@H](OC(C)(C)C)C(=O)O)CC(=O)N(C2CCCC(C)(C)C2)C3)cc(F)c2c1CCCO2 (stereo partly drawn) [Example 111, (2S)-2-(tert-butoxy)-2-((7R)-2-(3,3-dimethylcyclohexyl)-7-(8-fluoro-5-methylchroman-6-yl)-5,8-dimethyl-3-oxo-1,2,3,4-tetrahydroisoquinolin-6-yl)acetic Acid]",3
10,"Cc1c(-c2c(C)c3c(c(C)c2[C@H](OC(C)(C)C)C(=O)O)CC(=O)N(C2CCCCC2(C)C)C3)cc(F)c2c1CCCO2 (stereo partly drawn) [Example 116, (2S)-2-(tert-butoxy)-2-((7R)-2-(2,2-dimethylcyclohexyl)-7-(8-fluoro-5-methylchroman-6-yl)-5,8-dimethyl-3-oxo-1,2,3,4-tetrahydroisoquinolin-6-yl)acetic Acid]",3
11,"Cc1c(-c2c(C)c3c(c(C)c2[C@H](OC(C)(C)C)C(=O)O)CC(=O)N(C2CCCC(F)(F)C2)C3)cc(F)c2c1CCCO2 (stereo partly drawn) [Example 117, (2S)-2-(tert-butoxy)-2-((7R)-2-(3,3-difluorocyclohexyl)-7-(8-fluoro-5-methylchroman-6-yl)-5,8-dimethyl-3-oxo-1,2,3,4-tetrahydroisoquinolin-6-yl)acetic Acid]",2
12,"Cc1ccc(-c2c(C)c3c(c(C)c2C(OC(C)(C)C)C(=O)O)C(=O)N(Cc2ccccc2)CC3)cc1 (stereo not drawn) [Example 121, 2-(2-benzyl-5,8-dimethyl-1-oxo-6-(p-tolyl)-1,2,3,4-tetrahydroisoquinolin-7-yl)-2-(tert-butoxy)acetic Acid]",474
